The text below walks through data of patent US4450269A, “Mono-5-substituted-3-chloro-4H-1,2,6-thiadiazin-4-one antifungal agents” (FMC Corporation, priority 1980, dated 1984).

Experiment [1] relates to Pyricularia oryzae. The experiment is described as follows: microbe, parasite or virus in culture. The format is cell-based. Particulars: Pyricularia oryzae, 72 h; for inhibition at 5 ppm: read-out: Percent Fungus Growth Inhibition, PO, 5 ppm, 72 hours; for inhibition at 10 ppm: read-out: Percent Fungus Growth Inhibition, PO, 10 ppm, 72 hours; for inhibition at 20 ppm: read-out: Percent Fungus Growth Inhibition, PO, 20 ppm, 72 hours; for inhibition at 40 ppm: read-out: Percent Fungus Growth Inhibition, PO, 40 ppm, 72 hours.

Experiment [2] concerns Pyricularia oryzae. The experiment in a line: whole plant or invertebrate. It is filed as in vivo. Particulars: Pyricularia oryzae, foliar, 24 h, read-out: Percent Disease Control, curative, rice blast, 150 ppm, 24 hours after inoculation.

Take `CNC(=O)Nc1ccc(Oc2nsnc(Cl)c2=O)cc1` [Compound 28, 3-chloro-5-[4-(3-methylureido)-phenoxy]-4H--1,2,6-thiadiazin-4-one]: in the experiment on Pyricularia oryzae [1], the inhibition at 5 ppm stood at 24%, the inhibition at 10 ppm was determined as 24%, the inhibition at 20 ppm came out at 52% and the inhibition at 40 ppm came to 90%. Moreover, in the experiment with Pyricularia oryzae [2], the pest or weed control at 150 ppm was found to be 0%.

Consider `O=C(Nc1ccccc1)Nc1ccc(Oc2nsnc(Cl)c2=O)cc1` [Compound 29, 3-chloro-5-[4-(3-phenylureido)-phenoxy]-4H--1,2,6-thiadiazin-4-one], for which, in the experiment with Pyricularia oryzae [1], the inhibition at 5 ppm was determined as 19%, the inhibition at 10 ppm amounted to 14%, the inhibition at 20 ppm stood at 0% and the inhibition at 40 ppm is 0%. Further, the pest or weed control at 150 ppm with Pyricularia oryzae [2] was found to be 0%.

Take `O=c1c(Cl)nsnc1Oc1c(Cl)cc(Cl)cc1Cl` [Compound 30, 3-chloro-5-(2,4,6-trichlorophenoxy)-4H--1,2,6-thiadiazin-4-one]: in the experiment with Pyricularia oryzae [1], the inhibition at 5 ppm is 10%, the inhibition at 10 ppm was found to be 71%, the inhibition at 20 ppm was 84% and the inhibition at 40 ppm was 90%. For the same molecule, the pest or weed control at 150 ppm in the experiment on Pyricularia oryzae [2] is 0%.

Regarding `O=c1c(Cl)nsnc1Oc1c(Cl)c(Cl)c(Cl)c(Cl)c1Cl` [Compound 31, 3-chloro-5-(pentachlorophenoxy)-4H--1,2,6-thiadiazine-4-one], in the experiment with Pyricularia oryzae [1], the inhibition at 5 ppm amounted to 33%, the inhibition at 10 ppm is 48%, the inhibition at 20 ppm is 62% and the inhibition at 40 ppm came to 57%. In the experiment with Pyricularia oryzae [2], the pest or weed control at 150 ppm was 0%.

With `O=c1c(Cl)nsnc1Oc1cccc2ccccc12` [Compound 32, 3-chloro-5(1-naphthoxy)-4H-1,2,6-thiadiazin-4-one], in the experiment on Pyricularia oryzae [1], the inhibition at 5 ppm amounted to 67%, the inhibition at 10 ppm was 78%, the inhibition at 20 ppm is 100% and the inhibition at 40 ppm was 89%. The pest or weed control at 150 ppm with Pyricularia oryzae [2] was 0%.

On to `O=c1c(Cl)nsnc1Oc1ccccc1Br` [Compound 34, 3-chloro-5-(2-bromophenoxy)-4H-1,2,6,-thiadiazin-4-one], for which, in the experiment on Pyricularia oryzae [1], the inhibition at 5 ppm was 38%, the inhibition at 10 ppm is 65%, the inhibition at 20 ppm is 100% and the inhibition at 40 ppm worked out at 100%. Further, in the experiment on Pyricularia oryzae [2], the pest or weed control at 150 ppm worked out at 0%.

For `O=C(Nc1ccccc1)Oc1ccc(Oc2nsnc(Cl)c2=O)cc1` [Compound 37, 3-chloro-5-[4-(phenylaminocarbonyloxy)phenoxy]-4H-1,2,6,-thiadiazin-4-one], in the experiment with Pyricularia oryzae [1], the inhibition at 5 ppm came out at 44%, the inhibition at 10 ppm stood at 44%, the inhibition at 20 ppm worked out at 61% and the inhibition at 40 ppm is 61%. Besides, the pest or weed control at 150 ppm in the experiment on Pyricularia oryzae [2] worked out at 0%.

`O=C(OCc1ccccc1)Oc1ccc(Oc2nsnc(Cl)c2=O)cc1` [Compound 38, 3-chloro-5-[4-(phenylmethoxycarbonyloxy)phenoxyl]-4H-1,2,6-thiadiazin-4-one]: in the experiment on Pyricularia oryzae [1], the inhibition at 5 ppm was determined as 8%, the inhibition at 10 ppm amounted to 15%, the inhibition at 20 ppm is 23% and the inhibition at 40 ppm came out at 46%. The pest or weed control at 150 ppm in the experiment on Pyricularia oryzae [2] stood at 0%.

Turning to `CSc1ccc(Oc2nsnc(Cl)c2=O)cc1` [Compound 39, 3-chloro-5-[(4-methylthio)phenoxy]-4H-1,2,6,-thiadiazin-4-one], in the experiment on Pyricularia oryzae [1], the inhibition at 5 ppm was determined as 42%, the inhibition at 10 ppm was determined as 61%, the inhibition at 20 ppm turned out to be 61% and the inhibition at 40 ppm was found to be 61%. The pest or weed control at 150 ppm in the experiment with Pyricularia oryzae [2] stood at 0%.

With `C[S+]([O-])c1ccc(Oc2nsnc(Cl)c2=O)cc1` (centres unmarked) [Compound 40, 3-chloro-5-[(4-methylsulfinyl)phenoxy]-4H-1,2,6,-thiadiazin-4-one], in the experiment on Pyricularia oryzae [1], the inhibition at 5 ppm came to 33%, the inhibition at 10 ppm worked out at 47%, the inhibition at 20 ppm amounted to 42% and the inhibition at 40 ppm came to 89%. In addition, in the experiment with Pyricularia oryzae [2], the pest or weed control at 150 ppm came to 0%.

In the case of `CC(=O)Nc1cccc(Oc2nsnc(Cl)c2=O)c1` [Compound 42, 3-[(3-N--acetylamino)-phenoxy]-5-chloro-4H--1,2,6-thiadiazin-4-one], in the experiment with Pyricularia oryzae [1], the inhibition at 5 ppm was determined as 7%, the inhibition at 10 ppm was determined as 11%, the inhibition at 20 ppm came out at 32% and the inhibition at 40 ppm turned out to be 68%. Also, the pest or weed control at 150 ppm in the experiment on Pyricularia oryzae [2] is 0%.

For the molecule `CC(=O)Nc1ccccc1Oc1nsnc(Cl)c1=O` [Compound 43, 3-[(2-acetylamino)-phenoxy]-5-chloro-4H--1,2,6-thiadiazin-4-one], in the experiment with Pyricularia oryzae [1], the inhibition at 5 ppm turned out to be 13%, the inhibition at 10 ppm amounted to 18%, the inhibition at 20 ppm amounted to 24% and the inhibition at 40 ppm came to 24%. Further, in the experiment on Pyricularia oryzae [2], the pest or weed control at 150 ppm amounted to 0%.

Turning to `O=c1c(Cl)nsnc1Oc1cccc(C(F)(F)F)c1` [Compound 44, 3-chloro-5-[(3-trifluoromethyl)phenoxy]-4H--1,2,6-thiadiazin-4-one], in the experiment with Pyricularia oryzae [1], the inhibition at 5 ppm was determined as 54%, the inhibition at 10 ppm was found to be 71%, the inhibition at 20 ppm is 93% and the inhibition at 40 ppm amounted to 100%. The pest or weed control at 150 ppm with Pyricularia oryzae [2] stood at 0%.

Consider `O=C(O)Cc1ccccc1Oc1nsnc(Cl)c1=O` [Compound 45, 3-(2-carboxymethylphenoxy)-5-chloro-4H--1,2,6-thiadiazin-4-one], for which, in the experiment on Pyricularia oryzae [1], the inhibition at 5 ppm was 0%, the inhibition at 10 ppm turned out to be 0%, the inhibition at 20 ppm amounted to 0% and the inhibition at 40 ppm was 11%. Also, the pest or weed control at 150 ppm in the experiment on Pyricularia oryzae [2] worked out at 0%.

Consider `N#CCc1ccc(Oc2nsnc(Cl)c2=O)cc1` [Compound 46, 3-chloro-5-[(4-cyanomethyl)-phenoxy]4H--1,2,6-thiadiazin-4-one], for which, in the experiment with Pyricularia oryzae [1], the inhibition at 5 ppm is 38%, the inhibition at 10 ppm worked out at 77%, the inhibition at 20 ppm was determined as 100% and the inhibition at 40 ppm came to 100%. Also, in the experiment on Pyricularia oryzae [2], the pest or weed control at 150 ppm turned out to be 0%.

Regarding `CC(=O)c1ccc(Oc2nsnc(Cl)c2=O)cc1` [Compound 47, 3-(4-acetylphenoxy)-5-chloro-4H--1,2,6-thiadiazin-4-one], in the experiment on Pyricularia oryzae [1], the inhibition at 5 ppm turned out to be 78%, the inhibition at 10 ppm was 78%, the inhibition at 20 ppm is 100% and the inhibition at 40 ppm stood at 89%. The pest or weed control at 150 ppm in the experiment on Pyricularia oryzae [2] is 90%.

For the molecule `CC(=O)c1cccc(Oc2nsnc(Cl)c2=O)c1` [Compound 48, 3-(3-acetylphenoxy)-5-chloro-4H--1,2,6-thiadiazin-4-one], in the experiment with Pyricularia oryzae [1], the inhibition at 5 ppm was 56%, the inhibition at 10 ppm is 67%, the inhibition at 20 ppm was determined as 100% and the inhibition at 40 ppm worked out at 100%. Also, the pest or weed control at 150 ppm in the experiment with Pyricularia oryzae [2] turned out to be 50%.

`CC(=O)c1ccccc1Oc1nsnc(Cl)c1=O` [Compound 49, 3-(2-acetylphenoxy)-5-chloro-4H--1,2,6-thiadiazin-4-one]: in the experiment on Pyricularia oryzae [1], the inhibition at 5 ppm is 29%, the inhibition at 10 ppm worked out at 38%, the inhibition at 20 ppm was 53% and the inhibition at 40 ppm came to 74%. Further, the pest or weed control at 150 ppm in the experiment on Pyricularia oryzae [2] was 0%.

For `O=C(O)c1ccc(Oc2nsnc(Cl)c2=O)cc1` [Compound 50, 3-(4-carboxyphenoxy)-5-chloro-4H--1,2,6-thiadiazin-4-one], in the experiment with Pyricularia oryzae [1], the inhibition at 5 ppm came out at 11%, the inhibition at 10 ppm amounted to 0%, the inhibition at 20 ppm was determined as 11% and the inhibition at 40 ppm amounted to 100%. Also, in the experiment on Pyricularia oryzae [2], the pest or weed control at 150 ppm was determined as 90%.

Consider `COc1ccc(Cl)c(Oc2nsnc(Cl)c2=O)c1` [Compound 51, 3-chloro-5-[(2-chloro-5-methoxy)phenoxy]-4H--1,2,6-thiadiazin-4-one], for which, in the experiment on Pyricularia oryzae [1], the inhibition at 5 ppm was 46%, the inhibition at 10 ppm worked out at 77%, the inhibition at 20 ppm was determined as 92% and the inhibition at 40 ppm was determined as 100%. Moreover, the pest or weed control at 150 ppm in the experiment on Pyricularia oryzae [2] amounted to 0%.

Consider `COc1cc(Cl)cc(Oc2nsnc(Cl)c2=O)c1` [Compound 52, 3-chloro-5-[(3-chloro-5-methoxy)phenoxy]-4H--1,2,6-thiadiazin-4-one], for which, in the experiment with Pyricularia oryzae [1], the inhibition at 5 ppm came out at 58%, the inhibition at 10 ppm turned out to be 77%, the inhibition at 20 ppm turned out to be 100% and the inhibition at 40 ppm came out at 100%. The pest or weed control at 150 ppm in the experiment with Pyricularia oryzae [2] was determined as 95%.

On to `O=c1c(Cl)nsnc1Oc1ccc([N+](=O)[O-])cc1Cl` [Compound 53, 3-chloro-5-(2-chloro-4-nitrophenoxy)-4H--1,2,6-thiadiazin-4-one], for which, in the experiment with Pyricularia oryzae [1], the inhibition at 5 ppm worked out at 69%, the inhibition at 10 ppm stood at 75%, the inhibition at 20 ppm was found to be 78% and the inhibition at 40 ppm came out at 67%. In the experiment on Pyricularia oryzae [2], the pest or weed control at 150 ppm is 0%.

On to `Cc1cc(Oc2nsnc(Cl)c2=O)ccc1Cl` [Compound 54, 3-chloro-5-(4-chloro-3-methylphenoxy)-4H--1,2,6-thiadiazin-4-one], for which, in the experiment with Pyricularia oryzae [1], the inhibition at 5 ppm came to 50%, the inhibition at 10 ppm was 53%, the inhibition at 20 ppm turned out to be 56% and the inhibition at 40 ppm amounted to 65%. For the same molecule, the pest or weed control at 150 ppm in the experiment with Pyricularia oryzae [2] is 0%.

In the case of `Cc1cc(Cl)ccc1Oc1nsnc(Cl)c1=O` [Compound 55, 3-chloro-5-(4-chloro-2-methylphenoxy)-4H--1,2,6-thiadiazin-4-one], in the experiment on Pyricularia oryzae [1], the inhibition at 5 ppm is 41%, the inhibition at 10 ppm was 59%, the inhibition at 20 ppm was 51% and the inhibition at 40 ppm came to 53%. In the experiment on Pyricularia oryzae [2], the pest or weed control at 150 ppm came to 50%.

As to `Cc1ccc(Cl)c(Oc2nsnc(Cl)c2=O)c1` [Compound 56, 3-chloro-5-[(2-chloro-5-methyl)phenoxy]-4H--1,2,6-thiadiazin-4-one], in the experiment with Pyricularia oryzae [1], the inhibition at 5 ppm turned out to be 38%, the inhibition at 10 ppm stood at 67%, the inhibition at 20 ppm was 100% and the inhibition at 40 ppm is 100%. Also, the pest or weed control at 150 ppm with Pyricularia oryzae [2] turned out to be 0%.

As for `Cc1ccc(Oc2nsnc(Cl)c2=O)c(Br)c1` [Compound 57, 3-[(2-bromo-4-methyl)-phenoxy]-5-chloro-4H--1,2,6-thiadiazin-4-one], in the experiment with Pyricularia oryzae [1], the inhibition at 5 ppm stood at 46%, the inhibition at 10 ppm is 61%, the inhibition at 20 ppm came out at 71% and the inhibition at 40 ppm turned out to be 61%. For the same molecule, the pest or weed control at 150 ppm in the experiment with Pyricularia oryzae [2] was 0%.

With `Cc1cc(Cl)c(Oc2nsnc(Cl)c2=O)cc1C` [Compound 58, 3-chloro-5-[(2-chloro-4,5-dimethyl)phenoxy]-4H--1,2,6-thiadiazin-4-one], in the experiment on Pyricularia oryzae [1], the inhibition at 5 ppm worked out at 43%, the inhibition at 10 ppm is 54%, the inhibition at 20 ppm worked out at 29% and the inhibition at 40 ppm stood at 50%. Moreover, the pest or weed control at 150 ppm in the experiment on Pyricularia oryzae [2] was 0%.

Consider `Cc1cc(Oc2nsnc(Cl)c2=O)cc(C)c1Cl` [Compound 59, 3-chloro-5-[(4-chloro-3,5-dimethyl)phenoxy]-4H--1,2,6-thiadiazin-4-one], for which, in the experiment on Pyricularia oryzae [1], the inhibition at 5 ppm is 50%, the inhibition at 10 ppm is 61%, the inhibition at 20 ppm turned out to be 50% and the inhibition at 40 ppm was found to be 50%. Besides, in the experiment with Pyricularia oryzae [2], the pest or weed control at 150 ppm turned out to be 0%.

Usually inhibition stands for the share of the control response that was lost under treatment.
